The values that follow come from ChEMBL document CHEMBL2029294, “Evaluation of endo- and exo-aryl-substitutions and central scaffold modifications on diphenyl substituted alkanes as 5-lipoxygenase activating protein inhibitors” (Bioorg Med Chem Lett, 2012).

The target in series [1] is T1, Arachidonate 5-lipoxygenase-activating protein (Homo sapiens, UniProt P20292).
T1 sequence (P20292 whole entry): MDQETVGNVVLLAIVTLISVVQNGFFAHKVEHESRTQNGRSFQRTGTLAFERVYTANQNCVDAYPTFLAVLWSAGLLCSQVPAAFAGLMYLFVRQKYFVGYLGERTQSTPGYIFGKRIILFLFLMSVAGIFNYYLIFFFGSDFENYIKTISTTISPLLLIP
Put plainly: Displacement of [125I]L-691,831 from 5-lipoxygenase-activating protein in human polymorphonuclear cells. (In general: In a radioligand displacement assay an active substance lowers the binding of a labelled ligand.)

Series [2] addresses T1, Arachidonate 5-lipoxygenase-activating protein. Description: Inhibition of 5-lipoxygenase-activating protein in human polymorphonuclear cells assessed as inhibition of calcium ionophore-induced LTB4 production in presence of human whole blood. The series is classed as tissue-based.
Series [3] in a line: Cmax in Sprague-Dawley rat at 1 mg/kg, iv and 2 mg/kg, po. The series is classed as ADME, organism-based. The settings on record: in vivo.
Series [4] relates to Rattus norvegicus. Description: Dose normalised AUC in Sprague-Dawley rat at 1 mg/kg, iv. The series is classed as ADME, organism-based. The settings on record: in vivo. The arrangement: dose 1 mg/kg, route intravenous.
Series [5] in a line: Half life in Sprague-Dawley rat at 1 mg/kg, iv and 2 mg/kg, po. The series is classed as ADME, organism-based. The settings on record: in vivo.
Series [6] in a line: Oral bioavailability in Sprague-Dawley rat at 2 mg/kg. Conditions: in vivo. The series is classed as ADME, organism-based.
Series [7] in a line: Volume of distribution in Sprague-Dawley rat at 1 mg/kg, iv and 2 mg/kg, po. The series is classed as ADME, organism-based. The settings on record: in vivo.
Series [8] in a line: Clearance in Sprague-Dawley rat at 1 mg/kg, iv and 2 mg/kg, po. The series is classed as ADME, organism-based. The settings on record: in vivo.

One may read the IC50 as the concentration that inhibits the measured activity by half. As for `COC(=O)c1ccc(OCc2ccc3ccccc3n2)cc1C(C)(C)c1ccccc1`, the values for the IC50 in series [1] and in series [2] were 0.058 µM and more than 9 µM, respectively.
`COC(=O)c1ccc(OCc2ccc3ccccc3n2)cc1[C@]1(c2ccccc2)C[C@H]2CC[C@H]1C2` (racemic): the IC50 in series [1] was 0.0021 µM; in series [2], 0.46 µM.
Taken in the same sequence, the figures for `c1ccc([C@@]2(c3cc(OCc4ccc5ccccc5n4)ccc3-c3nnn[nH]3)C[C@H]3CC[C@H]2C3)cc1` (racemic) were 0.0029 µM and 5.72 µM.
On to `COC(=O)c1ccc(OCc2ccc3ccccc3n2)cc1[C@]1(c2cc(F)cc(F)c2)C[C@H]2CC[C@H]1C2` (racemic), for which the IC50 worked out at 0.0034 µM in series [1] and 1.32 µM in series [2].
Take `COC(=O)c1ccc(OCc2ccc3ccccc3n2)cc1C1(c2ccccc2)C2CCC1CC2` (centres undefined): the IC50 in series [1] worked out at 0.0056 µM; in series [2], 1.3 µM.
The Cmax is the peak of the concentration-time curve. As a reminder, the half-life is how long it takes for the measured level to halve. Lower therefore signals rapid decline. The bioavailability is the share of a dose that reaches the circulation, judged against a reference dose that is usually intravenous. A lower bioavailability goes with little systemic uptake. In turn, `CC1CC(c2ccccc2)(c2cc(OCc3ccc4ccccc4n3)ccc2-c2n[nH]c(=O)o2)C1` (mixture of isomers) had a Cmax in series [3] of 0.12 µM. Also, the IC50 in series [1] was 0.0026 µM; in series [2] it was 0.695 µM. Besides, the AUC/dose in series [4] was 0.19 µM·kg·h/mg. This molecule also showed a half-life in series [5] of 2 h. This molecule also yielded a bioavailability in series [6] of 17%. This molecule yielded a Vd in series [7] of 3.1 L/kg. The clearance in series [8] was 1.92 L/h/kg.
Take `COC(=O)c1ccc(OCc2ccc3ccccc3n2)cc1C(c1ccccc1)C1CCCCC1` (racemic): the figures for the IC50 in series [1] and in series [2] were 0.016 µM and more than 9 µM, respectively.
Taken in the same sequence, the figures for `Cc1noc(-c2ccc(OCc3ccc4ccccc4n3)cc2[C@]2(c3ccccc3)C[C@H]3CC[C@H]2C3)n1` (racemic) were 0.0063 µM and 1.02 µM.
`CC1(C)CC(c2ccccc2)(c2cc(OCc3ccc4ccccc4n3)ccc2-c2n[nH]c(=O)o2)C1` showed a Cmax in series [3] of 0.01 µM. For the same molecule, the IC50 in series [1] turned out to be 0.0036 µM; in series [2] it was 0.834 µM. This molecule showed an AUC/dose in series [4] of 0.05 µM·kg·h/mg. The same molecule had a half-life in series [5] of 1.7 h. In series [6], this molecule registered a bioavailability of 9%. Also, the Vd in series [7] was found to be 7.5 L/kg. In addition, the clearance in series [8] turned out to be 4.26 L/h/kg.
With `Cc1nc(-c2ccc(OCc3ccc4ccccc4n3)cc2[C@]2(c3ccccc3)C[C@H]3CC[C@H]2C3)no1` (racemic), the IC50 worked out at 0.0016 µM in series [1] and 0.189 µM in series [2].
Taken in the same sequence, the figures for `O=C(c1ccc(OCc2ccc3ccccc3n2)cc1[C@]1(c2ccccc2)C[C@H]2CC[C@H]1C2)N1CCCC1` (racemic) were 0.0071 µM and 1.73 µM.
Taken in the same sequence, the figures for `COC(=O)c1ccc(OCc2ccc3ccccc3n2)cc1[C@]1(c2ccccc2F)C[C@H]2CC[C@H]1C2` (racemic) were 0.004 µM and 1.6 µM.
In the same order, the values of `Cc1nnc(-c2ccc(OCc3ccc4ccccc4n3)cc2[C@]2(c3ccccc3)C[C@H]3CC[C@H]2C3)o1` (racemic) are 0.005 µM and 0.456 µM.
In the case of `COC(=O)c1ccc(OCc2ccc3ccccc3n2)cc1C1(c2ccccc2)CCCC1`, the IC50 was 0.0085 µM in series [1] and 3.7 µM in series [2].
Taken in the same sequence, the figures for `O=C(Nc1cccnc1)c1ccc(OCc2ccc3ccccc3n2)cc1[C@]1(c2ccccc2)C[C@H]2CC[C@H]1C2` (racemic) were 0.0058 µM and 2.16 µM.
Taken in the same sequence, the figures for `COC(=O)c1ccc(OCc2ccc3ccccc3n2)cc1C1(c2ccccc2)CCCCC1` were 0.015 µM and 1.56 µM.
On to `COC(=O)c1ccc(OCc2ccc3ccccc3n2)cc1C1(c2ccccc2)CC(C)(C)C1`, for which the IC50 in series [1] was determined as 0.0052 µM; in series [2], 1.4 µM.
Taken in the same sequence, the figures for `c1ccc([C@@]2(c3cc(OCc4ccc5ccccc5n4)ccc3-c3ncon3)C[C@H]3CC[C@H]2C3)cc1` (racemic) were 0.0054 µM and 0.721 µM.
In the same order, the values of `COC(=O)c1ccc(OCc2ccc3ccccc3n2)cc1C(c1ccccc1)C(C)(C)C` (racemic) are 0.0055 µM and 0.67 µM.
Regarding `O=C(NC1CCCC1)c1ccc(OCc2ccc3ccccc3n2)cc1[C@]1(c2ccccc2)C[C@H]2CC[C@H]1C2` (racemic), the IC50 was found to be 0.048 µM in series [1] and 0.964 µM in series [2].
In the same order, the values of `FC(F)n1nnc(-c2ccc(OCc3ccc4ccccc4n3)cc2[C@]2(c3ccccc3)C[C@H]3CC[C@H]2C3)n1` (racemic) are 0.0024 µM and 0.502 µM.
Consider `Nc1nnc(-c2ccc(OCc3ccc4ccccc4n3)cc2[C@]2(c3ccccc3)C[C@H]3CC[C@H]2C3)o1` (racemic), for which the values for the IC50 in series [1] and in series [2] were 0.0022 µM and 0.258 µM, respectively.
Taken in the same sequence, the figures for `COC(=O)c1ccc(OCc2ccc3ccccc3n2)cc1C1(c2ccccc2)CC(F)(F)C1` were 0.05 µM and more than 9 µM.
As to `CC(C)n1nnc(-c2ccc(OCc3ccc4ccccc4n3)cc2[C@]2(c3ccccc3)C[C@H]3CC[C@H]2C3)n1` (racemic), the IC50 came out at 0.0017 µM in series [1] and 0.149 µM in series [2].
In the same order, the values of `CCn1nnc(-c2ccc(OCc3ccc4ccccc4n3)cc2[C@]2(c3ccccc3)C[C@H]3CC[C@H]2C3)n1` (racemic) are 0.0024 µM and 0.177 µM.
Taken in the same sequence, the figures for `COC(=O)c1ccc(OCc2ccc3ccccc3n2)cc1[C@]1(c2cccc(C(F)(F)F)c2)C[C@H]2CC[C@H]1C2` (racemic) were 0.0074 µM and more than 8.6 µM.
In the same order, the values of `COC(=O)c1ccc(OCc2ccc3ccccc3n2)cc1C1(c2ccccc2)CC(C)C1` (centres undefined) are 0.0032 µM and 1.1 µM.
Take `O=c1[nH]nc(-c2ccc(OCc3ccc4ccccc4n3)cc2[C@]2(c3ccccc3)C[C@H]3CC[C@H]2C3)o1` (racemic): the results for the IC50 in series [1] and in series [2] were 0.0025 µM and 0.796 µM, respectively.
For the molecule `COC(=O)c1ccc(OCc2ccc3ccccc3n2)cc1[C@]1(c2cccc(OC)c2)C[C@H]2CC[C@H]1C2` (racemic), the IC50 was 0.0025 µM in series [1] and 0.322 µM in series [2].
Taken in the same sequence, the figures for `COC(=O)c1ccc(OCc2ccc3ccccc3n2)cc1C(CC(C)(C)C)c1ccccc1` (racemic) were 0.003 µM and 2 µM.
With `CCC(CC)(c1ccccc1)c1cc(OCc2ccc3ccccc3n2)ccc1C(=O)OC`, the IC50 in series [1] is 0.096 µM; in series [2], more than 9 µM.
Take `COC(=O)c1ccc(OCc2ccc3ccccc3n2)cc1[C@]1(c2ccc(F)cc2)C[C@H]2CC[C@H]1C2` (racemic): the figures for the IC50 in series [1] and in series [2] were 0.0095 µM and 1.4 µM, respectively.
In the same order, the values of `COC(=O)c1ccc(OCc2ccc3ccccc3n2)cc1[C@]1(c2cccc(C)c2)C[C@H]2CC[C@H]1C2` (racemic) are 0.0055 µM and 0.94 µM.
Taken in the same sequence, the figures for `COC(=O)c1ccc(OCc2ccc3ccccc3n2)cc1[C@]1(c2cc(C)cc(C)c2)C[C@H]2CC[C@H]1C2` (racemic) were 0.0035 µM and 2.3 µM.
Taken in the same sequence, the figures for `COC(=O)c1ccc(OCc2ccc3ccccc3n2)cc1C1(c2ccccc2)CCC1` were 0.02 µM and more than 7 µM.
As to `c1ccc([C@@]2(c3cc(OCc4ccc5ccccc5n4)ccc3-c3nnco3)C[C@H]3CC[C@H]2C3)cc1` (racemic), the IC50 in series [1] was 0.0029 µM; in series [2], 0.376 µM.
In the case of `S=c1[nH]nc(-c2ccc(OCc3ccc4ccccc4n3)cc2[C@]2(c3ccccc3)C[C@H]3CC[C@H]2C3)o1` (racemic), the IC50 in series [1] turned out to be 0.0011 µM; in series [2] it was 0.753 µM.
For the molecule `COC(=O)c1ccc(OCc2ccc3ccccc3n2)cc1[C@]1(c2cccc(F)c2)C[C@H]2CC[C@H]1C2` (racemic), the IC50 in series [1] amounted to 0.0023 µM; in series [2] it was 0.472 µM.
Molecule `COc1cccc([C@]2(c3cc(OCc4ccc5ccccc5n4)ccc3-c3n[nH]c(=O)o3)C[C@H]3CC[C@H]2C3)c1` came in with a Cmax in series [3] of 0.67 µM. Also, the IC50 in series [1] was 0.0011 µM; in series [2] it was 0.375 µM. This molecule also had an AUC/dose in series [4] of 0.79 µM·kg·h/mg. In series [5], the half-life is 1.2 h. This molecule also returned a bioavailability in series [6] of 17%. In addition, the Vd in series [7] came out at 0.7 L/kg. For the same molecule, the clearance in series [8] was 0.432 L/h/kg.
Molecule `CC(C)(C)[C@@H](c1ccccc1)c1cc(OCc2ccc3ccccc3n2)ccc1-c1n[nH]c(=O)o1` displayed a Cmax in series [3] of 0.25 µM. Also, the IC50 in series [1] was found to be 0.0019 µM; in series [2] it was 0.534 µM. Also, the AUC/dose in series [4] was found to be 0.34 µM·kg·h/mg. The molecule further showed a half-life in series [5] of 4.3 h. For the same molecule, the bioavailability in series [6] turned out to be 27%. The Vd in series [7] was determined as 5.3 L/kg. Moreover, the clearance in series [8] amounted to 1.74 L/h/kg.
In series [3], `O=c1[nH]nc(-c2ccc(OCc3ccc4ccccc4n3)cc2[C@@]2(c3ccccc3)C[C@H]3CC[C@H]2C3)o1` displayed a Cmax of 0.4 µM. In addition, the IC50 in series [1] came to 0.0008 µM; in series [2], 0.469 µM. In series [4], this molecule displayed an AUC/dose of 0.58 µM·kg·h/mg. In series [5], the half-life is 1 h. Further, the bioavailability in series [6] was 12%. In series [7], this molecule yielded a Vd of 1 L/kg. Also, the clearance in series [8] worked out at 0.438 L/h/kg.
For the molecule `Cn1nnc(-c2ccc(OCc3ccc4ccccc4n3)cc2[C@]2(c3ccccc3)C[C@H]3CC[C@H]2C3)n1` (racemic), the IC50 in series [1] stood at 0.0028 µM; in series [2], 0.313 µM.
